Consider ten compounds from ChEMBL document CHEMBL4043266, “Pentacyclic triterpenes as α-glucosidase and α-amylase inhibitors: Structure-activity relationships and the synergism with acarbose” (Bioorg Med Chem Lett, 2017).

A short description of experiment [1]: Inhibition of yeast alpha-glucosidase using 4-nitrophenyl-alpha-D-glucopyranoside as substrate preincubated for 15 mins followed by substrate addition measured after 20 mins. More on the design: species or system Saccharomyces cerevisiae.
Experiment [2] has as its target T1, Pancreatic alpha-amylase (Sus scrofa, UniProt P00690).
T1 sequence (P00690 whole entry): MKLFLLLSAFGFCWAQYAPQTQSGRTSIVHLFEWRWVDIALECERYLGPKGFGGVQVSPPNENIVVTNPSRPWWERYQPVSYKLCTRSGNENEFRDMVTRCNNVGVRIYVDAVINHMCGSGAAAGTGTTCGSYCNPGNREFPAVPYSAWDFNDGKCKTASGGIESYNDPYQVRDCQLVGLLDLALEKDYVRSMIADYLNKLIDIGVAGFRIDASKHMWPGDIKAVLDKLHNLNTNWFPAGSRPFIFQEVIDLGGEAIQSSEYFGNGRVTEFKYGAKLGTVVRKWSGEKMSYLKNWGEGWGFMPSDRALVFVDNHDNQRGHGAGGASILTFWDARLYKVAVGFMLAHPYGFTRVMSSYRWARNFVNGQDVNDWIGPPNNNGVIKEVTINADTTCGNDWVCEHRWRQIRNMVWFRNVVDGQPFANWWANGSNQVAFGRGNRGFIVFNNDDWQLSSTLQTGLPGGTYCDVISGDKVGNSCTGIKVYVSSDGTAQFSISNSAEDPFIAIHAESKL
Kind of experiment: Inhibition of porcine pancreatic alpha-amylase using starch as substrate preincubated for 15 mins followed by substrate addition measured after 10 mins by dinitrosalicylic acid reagent based assay.

Molecules are shown by their SMILES. pIC50: −log10 of the molar value.

Regarding `C[C@H]1[C@H](C)CC[C@]2(C(=O)O[C@@H]3O[C@H](CO[C@@H]4O[C@H](CO)[C@@H](O[C@@H]5O[C@@H](C)[C@H](O)[C@@H](O)[C@H]5O)[C@H](O)[C@H]4O)[C@@H](O)[C@H](O)[C@H]3O)CC[C@]3(C)C(=CC[C@@H]4[C@@]5(C)C[C@@H](O)[C@H](O)[C@@](C)(CO)[C@@H]5CC[C@]43C)[C@H]12`, the negative-log IC50 (pIC50) in experiment [1] and in experiment [2] was less than 3.70 each time. In experiment [1], `C[C@H]1O[C@H](O[C@H]2[C@H](O)[C@@H](O)[C@@H](O[C@H]3[C@H](O)[C@@H](O)C(O)O[C@@H]3CO)O[C@@H]2CO)[C@H](O)[C@@H](O)[C@@H]1N[C@H]1C=C(CO)[C@@H](O)[C@H](O)[C@H]1O` (some centres not stated) [ACARBOSE] showed a pIC50 of 2.61. `C[C@H]1[C@H](C)CC[C@]2(C(=O)O)CC[C@]3(C)C(=CC[C@@H]4[C@@]5(C)C[C@@H](O)[C@H](O)[C@@](C)(CO)[C@@H]5CC[C@]43C)[C@H]12` [ASIATIC ACID]: the values for the pIC50 in experiment [1] and in experiment [2] were 4.00 and less than 3.70, respectively.

For the compound `C=C(C)[C@@H]1CC[C@]2(C(=O)O)CC[C@]3(C)[C@H](CC[C@@H]4[C@@]5(C)CC[C@H](O)C(C)(C)[C@@H]5CC[C@]43C)[C@@H]12` [BETULINIC ACID], the pIC50 was 4.83 in experiment [1] and less than 3.70 in experiment [2]. The corresponding values for `C=C(C)[C@@H]1CC[C@]2(CO)CC[C@]3(C)[C@H](CC[C@@H]4[C@@]5(C)CC[C@H](O)C(C)(C)[C@@H]5CC[C@]43C)[C@@H]12` [BETULIN] are 4.28 and less than 3.70. Taken in the same sequence, the figures for `C[C@H]1[C@H](C)CC[C@]2(C(=O)O)CC[C@]3(C)C(=CC[C@@H]4[C@@]5(C)C[C@@H](O)[C@H](O)C(C)(C)[C@@H]5CC[C@]43C)[C@H]12` [COROSOLIC ACID] were 4.76 and 4.51. In the case of `CC1(C)[C@@H](O)CC[C@]2(C)[C@H]3C(=O)C=C4[C@@H]5C[C@@](C)(C(=O)O)CC[C@]5(C)CC[C@@]4(C)[C@]3(C)CC[C@@H]12` [ENOXOLONE], the pIC50 in experiment [1] and in experiment [2] was less than 3.70 in each case.

As for `CC1(C)[C@@H](O[C@H]2O[C@H](C(=O)O)[C@@H](O)[C@H](O)[C@H]2O[C@@H]2O[C@H](C(=O)O)[C@@H](O)[C@H](O)[C@H]2O)CC[C@]2(C)[C@H]3C(=O)C=C4[C@@H]5C[C@@](C)(C(=O)O)CC[C@]5(C)CC[C@@]4(C)[C@]3(C)CC[C@@H]12` [GLYCYRRHIZIN], the pIC50 in experiment [1] and in experiment [2] was less than 3.70 each time. Turning to `CC1(C)CC[C@]2(C(=O)O)CC[C@]3(C)C(=CC[C@@H]4[C@@]5(C)CC[C@H](O)C(C)(C)[C@@H]5CC[C@]43C)[C@@H]2C1` [OLEANOLIC_ACID], the pIC50 in experiment [1] was 4.45. On the same count and under the same terms, next, `C[C@H]1[C@H](C)CC[C@]2(C(=O)O)CC[C@]3(C)C(=CC[C@@H]4[C@@]5(C)CC[C@H](O)C(C)(C)[C@@H]5CC[C@]43C)[C@H]12` [URSOLIC ACID]: 4.92.

As usually defined, the pIC50 is the IC50 on a negative log10 scale, so that one unit is a factor of ten. A low value points to a high IC50.
